Test results reported in patent US20260216166A1, “COMPOUND FOR TREATMENT OF ERECTILE DYSFUNCTION” (Initiator Pharma A/S, priority 2023, published 2026).
Where two headings read alike, the source gives them in different places.

How the values were obtained:
[1] = Phase II single oral dose pharmacokinetics in male patients with ED; format: in vivo; settings: human, plasma, 10 mg single oral dose; for Tmax: male, po, 10 mg
Procedure: (§1) The study was an exploratory Phase II, randomised, placebo-controlled, double-blind, crossover study, investigating the effects of a single oral dose of IP2015 on erectile function in males with ED. A dose level of 10 mg was selected. Patients were enrolled into two cohorts. Both cohorts participated in two periods (Period 1 and Period 2) and received a single dose of IP2015 and a single dose of placebo.
The IP2015 at a dose of 10 mg or matched placebo was administered once on the morning of Day 1 (in Period 1 and Period 2) as an oral solution in the fasted state. The dose was taken with 240 ml of water at room temperature. Subjects/patients were fasted overnight prior to dosing until 4 hours postdose. Water was allowed ad libitum except for 1 hour before and 1 hour after dosing.
The study also evaluated the plasma PK concentrations and parameters including but not limited to; AUC0-t, AUC0-∞, Cmax, tmax and T½ in male patients with ED. Blood samples for the determination of plasma concentrations of IP2015 were collected at predose, and 1, 4, 8 (post-stimulus challenge), and 24 hours postdose in each treatment period. The exploratory endpoint was the possible relationship between plasma PK levels and PD response as measured by RigiScan data.
Plasma samples for the determination of concentrations of IP2015 were analysed by using a validated liquid chromatography-tandem mass spectrometry method. The RigiScan Plus Monitor was used for efficacy during the stimulus challenge.
Safety parameters were listed and summarised using descriptive statistics. Pharmacokinetic parameter estimates were calculated using noncompartmental methods. Pharmacokinetic data were listed for each subject/patient and summarised by descriptive statistics.

[2] = system: male patients with ED; assay: RigiScan assessment during visual stimulus challenge in male patients with ED; format: in vivo, human; parameters: individual RAU value at the base / individual TAU value at the tip / individual RAU value at the tip / individual TAU value at the base: unit not given here
Excerpt: The RigiScan Plus Monitor consists of two loops, one to be placed around the base of the penis and the other towards the tip. The ambulatory monitor uses tip and base penile loops that adjust by tightening slightly at discrete time intervals to measure and record penile rigidity and tumescence. Each loop contains a cable that moves freely inside a conduit. Each loop takes a measurement every 15 seconds. The loop gently tightens with a linear force of 4 ounces (114 g) and then immediately releases and the tissue rebounds to its unloaded state. The RigiScan Plus Monitor then takes a tumescence measurement. After the tumescence measurement is taken, it is compared to the previous samples. When a 6 mm increase in tumescence is detected, representing possible erectile activity, the RigiScan Plus Monitor takes a second measurement every 30 seconds. After tumescence is measured, the loops tighten a second time around the circumference of the penis with a linear force of 10 ounces (283.5 g). The RigiScan Plus Monitor takes a measurement when this force is applied to record a cross sectional response to radial compression. This is how rigidity is measured^1. Data were recorded on a monitor strapped to the thigh of the subjects/participants and downloaded onto a computer after the recording session. Subjects/participants were instructed on how to self-apply the RigiScan Plus Monitor by the Investigator and were advised to wear loose fitting clothing during the residential stay at the unit.
as §1
Patients were assessed for efficacy using the RigiScan Plus Monitor during the stimulus challenge at predose and 1, 4 and 8-hour postdose on Day 1 of each treatment period.
The design of the stimulus challenge is outlined in FIG. 3. Predose and 1, 4 and 8-hour postdose, the patients were asked to watch a 20-minute digital clip in a private room. The digital clip consisted of a 10-minute neutral digital clip followed by a 10-minute digital clip consisting of heterosexual pornography. The study staff started the digital clip and then left the room, during which there was a 1-minute delay before the neutral digital clip commenced. The neutral and pornographic digital clip were different at each assessment. RigiScan assessments were recorded through the assessment period. The RigiScan Plus Monitor was applied for approximately 20 minutes on each occasion. The patient was semi-recumbent during the assessment.
The RigiScan measurement parameters were treated as efficacy outcomes and calculated in a similar fashion as in Example 2.
Effects of IP2015 on PD parameters were analysed with a generalised mixed regression model using a PD parameter as responsible variable, treatment (active and placebo), timepoint, period (1 and 2), sequence (active-placebo, placebo-active), interaction between treatment and timepoint as mixed effects, baseline measurements as a covariate, and patient as a random effect. This model was applied to each PD parameter. The treatment difference between active and placebo at different timepoints together with 95% CIs was derived from the generalized mixed regression model. For a continuous outcome, treatment difference was measured as the difference in LS mean; for a binary outcome, treatment difference was measured as the odds ratio. In case of model non-convergence due to small sample size at some timepoints, those timepoints could be pooled with neighbouring timepoints.

[3] = 10 mg, 4 hours postdose, N = 12
[4] = 10 mg, 4 hours postdose, statistically significant

## COc1cc2ccc(OC3CC4CCC(C3)N4)cc2oc1=O (stereo not shown) [IP2015, 7-[(8-azabicyclo[3.2.1]octan-3-yl)oxy]-3-methoxy-chromen-2-one]
[1]
  Cmax: 15.7 ng/mL
[1]; read-out: mean AUC0-t
  AUC(0-t): 287 ng·h/mL
[1]; read-out: median tmax
  Tmax: 4 h
[1]; read-out: tmax range
  Tmax: 1 to 8.53 h
[2]; 10 mg, 1 hour postdose, 95% CI: 0.02, 1.05, significantly higher
  baseline circumference at the tip, LS mean difference compared to placebo: 0.53
[2]; 10 mg, 4 hours postdose
  Average event rigidity, Base, LS Mean Difference of IP2015 − Placebo: 6.92%
  Average event rigidity, Tip, LS Mean Difference of IP2015 − Placebo: 10.21%
  Average events of tumescence, Base, LS Mean Difference of IP2015 − Placebo: 1.05
  Average events of tumescence, Tip, LS Mean Difference of IP2015 − Placebo: 1.05
  Baseline circumference, Base, LS Mean Difference of IP2015 − Placebo: −0.28
  Baseline circumference, Tip, LS Mean Difference of IP2015 − Placebo: −0.21
  Event duration, LS Mean Difference of IP2015 − Placebo: 8.20 % of session
  RAU, Base, LS Mean Difference of IP2015 − Placebo: 2.33
  TAU, Tip, LS Mean Difference of IP2015 − Placebo: 1.42
  Time rigid 80-100%, Base, LS Mean Difference of IP2015 − Placebo: 0.03
  Total event duration, LS Mean Difference of IP2015 − Placebo: 0.05 min
  Total events, LS Mean Difference of IP2015 − Placebo: 0.03
  time rigid 80%-100% at the tip, RAU at the tip and TAU at the base versus placebo: statistically significant compared to placebo
[2]; 10 mg, 4 hours postdose, 12 patients
  patients appearing to respond to treatment (individual RAU and TAU values): 3
[2]; [3]
  Average event rigidity, Base, Mean (SD): 20.83 (30.61) %
  Average event rigidity, Tip, Mean (SD): 19.58 (29.42) %
  Average events of tumescence, Base, Mean (SD): 3.49 (4.35)
  Average events of tumescence, Tip, Mean (SD): 3.33 (4.16)
  Baseline circumference, Base, Mean (SD): 7.21 (1.54)
  Baseline circumference, Tip, Mean (SD): 6.82 (1.16)
  Event duration, Mean (SD): 17.75 (27.72) % of session
  RAU, Base, Mean (SD): 3.50 (6.82)
  RAU, Tip, Mean (SD): 3.25 (6.25)
  TAU, Base, Mean (SD): 2.83 (4.97)
  TAU, Tip, Mean (SD): 2.17 (3.59)
  Time rigid 80-100%, Base, Mean (SD): 0.04 (0.11)
  Time rigid 80-100%, Tip, Mean (SD): 0.04 (0.10)
  Total event duration, Mean (SD): 0.09 (0.14) mins
  Total events, Mean (SD): 0.42 (0.51)
[2]; [4]
  RAU, Tip, LS Mean Difference of IP2015 − Placebo: 2.54
  TAU, Base, LS Mean Difference of IP2015 − Placebo: 1.95
  Time rigid 80-100%, Tip, LS Mean Difference of IP2015 − Placebo: 0.03
[2]; Patient 176, 4 hours postdose
  individual RAU value at the base: 21
  individual RAU value at the tip: 19
  individual TAU value at the base: 14
  individual TAU value at the tip: 8
[2]; Patient 177, 4 hours postdose
  individual RAU value at the base: 14
  individual RAU value at the tip: 13
  individual TAU value at the base: 11
  individual TAU value at the tip: 9
[2]; Patient 191, 4 hours postdose
  individual RAU value at the base: 4
  individual RAU value at the tip: 5
  individual TAU value at the base: 7
  individual TAU value at the tip: 7
